Experimental findings from PubChem BioAssay (NCI) are described below.

Among the test systems are SK-OV-3 ovarian; UO-31 renal; SF-268 CNS; A549 NSCLC; MCF7 breast; K-562 leukemia; OVCAR-8 ovarian; NCI-H23 lung; DU-145 prostate; SW-620 colon.
What all share (assay): NCI tumour cell line growth inhibition, 48 h

Structures are written as SMILES. Where “and” joins values, the source holds several entries; their conditions need not be identical. Equal values may be shown once.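 Five concentrations, 48 hours, 96-well plates. At the GI50, growth is halved. TGI: total growth inhibition.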

Consider `Cc1ccccc1NC(=O)c1sc2nc3c(cc2c1N)C(=O)CCC3`, for which the GI50 in the assay on SK-OV-3 ovarian is 2.72 µM; in the assay with UO-31 renal, 34.4 µM; in the assay with SF-268 CNS it was 8.51 µM; with A549 NSCLC, 2.22 µM; in the assay on MCF7 breast it was 1.58 µM; in the assay with K-562 leukemia it was 0.771 µM. The GI50 was 4.89 µM in the assay with OVCAR-8 ovarian, 4.62 µM in the assay on NCI-H23 lung, 2.7 µM in the assay with DU-145 prostate and 1.83 µM with SW-620 colon. The TGI with SK-OV-3 ovarian, in the assay on UO-31 renal, with SF-268 CNS, in the assay on A549 NSCLC, in the assay with MCF7 breast and in the assay with K-562 leukemia was greater than 100 µM throughout. Also, the TGI was greater than 100 µM in the assay with OVCAR-8 ovarian, greater than 100 µM in the assay with NCI-H23 lung, 8.41 µM in the assay with DU-145 prostate and greater than 100 µM in the assay on SW-620 colon.

Take `N#CC(=S)Nc1ccc(F)cc1`: the TGI with SK-OV-3 ovarian, with SF-268 CNS, in the assay on A549 NSCLC, with MCF7 breast, in the assay with K-562 leukemia and in the assay on OVCAR-8 ovarian was greater than 100 µM in each case. Also, the TGI with NCI-H23 lung, in the assay with DU-145 prostate and in the assay with SW-620 colon was greater than 100 µM each time.

Regarding `CS(=O)(=O)CS(=O)CS(=O)CS(=O)CC(NC(=O)CCC(N)C(=O)O)C(=O)O` (stereo unspecified), the TGI in the assay with UO-31 renal, in the assay with SF-268 CNS, in the assay on A549 NSCLC, in the assay on MCF7 breast, with K-562 leukemia and in the assay on OVCAR-8 ovarian was greater than 100 µM each time. Also, the TGI in the assay with NCI-H23 lung, in the assay with DU-145 prostate and in the assay with SW-620 colon was greater than 100 µM throughout.

`COc1ccc(Nc2c[nH]c(=O)[nH]c2=O)cc1`: the TGI in the assay with SK-OV-3 ovarian, in the assay with UO-31 renal, in the assay with A549 NSCLC, with MCF7 breast, in the assay with K-562 leukemia and with OVCAR-8 ovarian was greater than 100 µM each time. Besides, the TGI with NCI-H23 lung, in the assay on DU-145 prostate and in the assay with SW-620 colon was greater than 100 µM in each case.

In the case of `CC(C)(CCC(C)(C)c1ccccc1)c1ccccc1`, the TGI in the assay on SK-OV-3 ovarian was 82.6 µM; with SF-268 CNS, 33.3 µM; in the assay on A549 NSCLC, greater than 100 µM; with MCF7 breast, 32.8 µM; with K-562 leukemia, 61.2 µM; with OVCAR-8 ovarian it was 75.9 µM. The TGI in the assay with NCI-H23 lung amounted to 33.9 µM; in the assay with DU-145 prostate, 38.5 µM; with SW-620 colon, 35.2 µM.

On to `O=[N+]([O-])c1ccc2c(c1)S(=O)c1ccccc1-2` (stereo unspecified), for which the TGI in the assay on SK-OV-3 ovarian, in the assay with SF-268 CNS, with A549 NSCLC, with MCF7 breast, with K-562 leukemia and in the assay on OVCAR-8 ovarian was greater than 100 µM in each case. Moreover, the TGI in the assay on NCI-H23 lung, in the assay on DU-145 prostate and with SW-620 colon was greater than 100 µM in each case.

For `OC(C(=Nc1ccccc1)c1ccccc1)c1ccccc1` (stereo unspecified), the TGI in the assay with SK-OV-3 ovarian was 55.8 µM; in the assay with UO-31 renal, 39.8 µM; in the assay with SF-268 CNS it was 17.4 µM; in the assay on A549 NSCLC, 33.6 µM; in the assay with MCF7 breast, 45.4 µM; with K-562 leukemia, greater than 100 µM. Further, the TGI in the assay on NCI-H23 lung was found to be 40.4 µM; in the assay with DU-145 prostate it was 21.7 µM; with SW-620 colon, 66.5 µM.

Take `N#Cc1ccc2oc3ccc(C#N)cc3c(=O)c2c1`: the TGI with UO-31 renal is greater than 100 µM; in the assay on SF-268 CNS it was 69.1 µM; in the assay with A549 NSCLC it was 57 µM; with MCF7 breast, 94.8 µM; in the assay with K-562 leukemia it was greater than 100 µM; in the assay with OVCAR-8 ovarian, greater than 100 µM. Further, the TGI in the assay on NCI-H23 lung is 51.1 µM; with DU-145 prostate it was greater than 100 µM; in the assay with SW-620 colon it was greater than 100 µM.

As for `CCC(C)CC(CC)NCCN1CCN(C(CC)CC(C)CC)C1=S` (stereo unspecified), the GI50 was 1.86 µM with SK-OV-3 ovarian; 2.39 µM in the assay with UO-31 renal; 1.92 µM in the assay with SF-268 CNS; 1.76 µM in the assay with A549 NSCLC; 1.63 µM in the assay on MCF7 breast; 1.66 µM with OVCAR-8 ovarian. The GI50 in the assay with NCI-H23 lung is 1.74 µM; with DU-145 prostate it was 2.17 µM; in the assay on SW-620 colon, 1.89 µM. Also, the TGI with SK-OV-3 ovarian is 3.36 µM; in the assay on UO-31 renal, 8.68 µM; in the assay with SF-268 CNS, 4.11 µM; in the assay with A549 NSCLC it was 3.37 µM; in the assay on MCF7 breast, 2.98 µM; with OVCAR-8 ovarian, 3.05 µM. Further, the figures for the TGI in the assay on NCI-H23 lung, with DU-145 prostate and in the assay with SW-620 colon were 3.5 µM, 4.71 µM and 3.55 µM, respectively.

For the molecule `COc1ccc(Cn2cc(Cn3c(=O)c(-c4nc5ccccc5[nH]4)cc4ccccc43)nn2)c(OC)c1OC`, the GI50 is 0.576 µM and 0.749 µM with UO-31 renal; 0.55 µM and 0.477 µM in the assay with SF-268 CNS; 0.213 µM and 0.477 µM in the assay with A549 NSCLC; 0.0789 µM and 0.0495 µM with MCF7 breast; 0.162 µM and 0.191 µM with K-562 leukemia; 0.213 µM and 0.486 µM in the assay on OVCAR-8 ovarian. For the same molecule, the GI50 in the assay on NCI-H23 lung was 0.329 µM and 0.581 µM; in the assay with DU-145 prostate it was 0.22 µM; in the assay on SW-620 colon, 0.223 µM and 0.293 µM. The TGI in the assay with UO-31 renal is 1.78 µM and 4.63 µM; in the assay on K-562 leukemia, 50 µM and > 100 µM; in the assay on NCI-H23 lung, 50 µM and > 100 µM; in the assay with DU-145 prostate it was 0.769 µM; in the assay on SW-620 colon, 50 µM and > 100 µM.

`CN1c2ccccc2C(C)(C)C12CC(c1ccc(Cl)c(S(=O)(=O)N3CCCC3)c1)=NO2` (stereo unspecified): the GI50 in the assay with SK-OV-3 ovarian, in the assay with UO-31 renal, in the assay with SF-268 CNS, in the assay on A549 NSCLC, in the assay on MCF7 breast and in the assay with OVCAR-8 ovarian was greater than 100 µM each time. The GI50 in the assay on NCI-H23 lung and with DU-145 prostate was greater than 100 µM in each case. Also, the TGI with SK-OV-3 ovarian, in the assay on UO-31 renal, in the assay with SF-268 CNS, with A549 NSCLC, in the assay with MCF7 breast and in the assay on OVCAR-8 ovarian was greater than 100 µM throughout. The TGI with NCI-H23 lung and in the assay on DU-145 prostate was greater than 100 µM in each case.
